Experimental data from PubChem BioAssay AID1963867 (Molecular Pharmacology Branch, DTP, NCI, 2024).

Test system: KRAS-mutant PDC tumor spheroid with HUVEC/MSC, viability
Test: Anticancer human tumor 327498-153-R-J2-PDC patient-derived uterine carcinosarcoma cell line growth inhibition [KRAS2]
Conditions: for IC50: curve of first compound; for viability, T/C: stronger effect = lower value
Procedure, shortened: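 Combination screen of spheroid viability in tumor-cell co-cultures with endothelial (HUVEC) and mesenchymal stem cell stroma. Each agent was tested in half-log dilutions, topping at clinical Cmax or at 10 microM without a known Cmax.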

[1] = second compound 0.1 µM, first compound 0.000316 µM
[2] = second compound 0.1 µM, first compound 0.001 µM
[3] = second compound 0.1 µM, first compound 0.00316 µM
[4] = second compound 0.1 µM, first compound 0.01 µM
[5] = second compound 0.1 µM, first compound 0.0316 µM
[6] = second compound 0.316 µM, first compound 0.000316 µM
[7] = second compound 0.316 µM, first compound 0.001 µM
[8] = second compound 0.316 µM, first compound 0.00316 µM
[9] = second compound 0.316 µM, first compound 0.01 µM
[10] = second compound 0.316 µM, first compound 0.0316 µM
[11] = second compound 1 µM, first compound 0.000316 µM
[12] = second compound 1 µM, first compound 0.001 µM
[13] = second compound 1 µM, first compound 0.00316 µM
[14] = second compound 1 µM, first compound 0.01 µM
[15] = second compound 1 µM, first compound 0.0316 µM
[16] = second compound 3.16 µM, first compound 0.000316 µM
[17] = second compound 3.16 µM, first compound 0.001 µM
[18] = second compound 3.16 µM, first compound 0.00316 µM
[19] = second compound 3.16 µM, first compound 0.01 µM
[20] = second compound 3.16 µM, first compound 0.0316 µM
[21] = second compound 10 µM, first compound 0.000316 µM
[22] = second compound 10 µM, first compound 0.001 µM
[23] = second compound 10 µM, first compound 0.00316 µM
[24] = second compound 10 µM, first compound 0.01 µM
[25] = second compound 10 µM, first compound 0.0316 µM
[26] = second compound 0.1 µM, first compound 0.1 µM
[27] = second compound 0.316 µM, first compound 0.1 µM
[28] = second compound 1 µM, first compound 0.1 µM
[29] = second compound 3.16 µM, first compound 0.1 µM
[30] = second compound 10 µM, first compound 0.1 µM
[31] = second compound 0.1 µM, first compound 0.316 µM
[32] = second compound 0.1 µM, first compound 1 µM
[33] = second compound 0.1 µM, first compound 3.16 µM
[34] = second compound 0.1 µM, first compound 10 µM
[35] = second compound 0.316 µM, first compound 0.316 µM
[36] = second compound 0.316 µM, first compound 1 µM
[37] = second compound 0.316 µM, first compound 3.16 µM
[38] = second compound 0.316 µM, first compound 10 µM
[39] = second compound 1 µM, first compound 0.316 µM
[40] = second compound 1 µM, first compound 1 µM
[41] = second compound 1 µM, first compound 3.16 µM
[42] = second compound 1 µM, first compound 10 µM
[43] = second compound 3.16 µM, first compound 0.316 µM
[44] = second compound 3.16 µM, first compound 1 µM
[45] = second compound 3.16 µM, first compound 3.16 µM
[46] = second compound 3.16 µM, first compound 10 µM
[47] = second compound 10 µM, first compound 0.316 µM
[48] = second compound 10 µM, first compound 1 µM
[49] = second compound 10 µM, first compound 3.16 µM
[50] = second compound 10 µM, first compound 10 µM
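Further: spheroids exposed to agents for seven days before reading.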
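Wherever viability, T/C is given: 100% = DMSO vehicle wells so lower means fewer viable cells.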

In the case of `CC(=O)Nc1cccc(-n2c(=O)n(C3CC3)c(=O)c3c(Nc4ccc(I)cc4F)n(C)c(=O)c(C)c32)c1` + COc1cc2nc(C)nc(NC(C)c3cc(N)cc(C(F)(F)F)c3)c2cc1OC1CCOC1, the IC50 (second compound 0.1 µM) is reported as 3.71 nM, the IC50 (second compound 0.316 µM) is reported as 2.62 nM and the IC50 (second compound 1 µM) is reported as 2.12 nM. For the same molecule, the IC50 (second compound 3.16 µM) was 1.05 nM, the IC50 (second compound 10 µM) was less than 0.1 nM and the viability, T/C (second compound 0.1 µM, first compound 0.0001 µM) was 67.4%. The viability, T/C [1] was 68.6%, the viability, T/C [2] was 55.7% and the viability, T/C [3] was 48.5%. For the same molecule, the viability, T/C [4] was 46.1%, the viability, T/C [5] was 25.5% and the viability, T/C (second compound 0.316 µM, first compound 0.0001 µM) was 74.9%. It also gave a viability, T/C [6] of 63.1%, a viability, T/C [7] of 54.5% and a viability, T/C [8] of 50.9%. The viability, T/C [9] was 43.2%, the viability, T/C [10] was 26.8% and the viability, T/C (second compound 1 µM, first compound 0.0001 µM) was 64.6%. The viability, T/C [11] was 67.3%, the viability, T/C [12] was 52.3% and the viability, T/C [13] was 44.3%. It also gave a viability, T/C [14] of 40.8%, a viability, T/C [15] of 22.9% and a viability, T/C (second compound 3.16 µM, first compound 0.0001 µM) of 56.5%. For the same molecule, the viability, T/C [16] was 52.6%, the viability, T/C [17] was 47.9% and the viability, T/C [18] was 44.1%. The viability, T/C [19] was 40%, the viability, T/C [20] was 22.4% and the viability, T/C (second compound 10 µM, first compound 0.0001 µM) was 48.1%. For the same molecule, the viability, T/C [21] was 37.7%, the viability, T/C [22] was 38.4% and the viability, T/C [23] was 29.8%. It also gave a viability, T/C [24] of 31.1% and a viability, T/C [25] of 18.3%.
Work on `CN(C)C/C=C/C(=O)Nc1cc2c(Nc3ccc(F)c(Cl)c3)ncnc2cc1O[C@H]1CCOC1` + COc1cc2nc(C)nc(NC(C)c3cc(N)cc(C(F)(F)F)c3)c2cc1OC1CCOC1 yielded an IC50 (second compound 0.1 µM) greater than 100 nM, an IC50 (second compound 0.316 µM) greater than 100 nM and an IC50 (second compound 1 µM) greater than 100 nM. For the same molecule, the IC50 (second compound 3.16 µM) was 16.2 nM, the IC50 (second compound 10 µM) was greater than 100 nM and the viability, T/C [1] was 88.6%. For the same molecule, the viability, T/C [2] was 84%, the viability, T/C [3] was 75.2% and the viability, T/C [4] was 76.7%. It also gave a viability, T/C [5] of 69.5%, a viability, T/C [26] of 68.1% and a viability, T/C [6] of 72.5%. It also gave a viability, T/C [7] of 76%, a viability, T/C [8] of 64% and a viability, T/C [9] of 67.3%. It also gave a viability, T/C [10] of 59.9%, a viability, T/C [27] of 62.4% and a viability, T/C [11] of 90.8%. It also gave a viability, T/C [12] of 85.1%, a viability, T/C [13] of 88.1% and a viability, T/C [14] of 86%. It also gave a viability, T/C [15] of 83.8%, a viability, T/C [28] of 84.8% and a viability, T/C [16] of 60.9%. For the same molecule, the viability, T/C [17] was 57.1%, the viability, T/C [18] was 52.7% and the viability, T/C [19] was 48.2%. The viability, T/C [20] was 49.9%, the viability, T/C [29] was 49.5% and the viability, T/C [21] was 58.5%. For the same molecule, the viability, T/C [22] was 56.7%, the viability, T/C [23] was 49.8% and the viability, T/C [24] was 49.3%. For the same molecule, the viability, T/C [25] was 53.7% and the viability, T/C [30] was 54.6%.
`COC(=O)c1ccc2c(C(=Nc3ccc(N(C)C(=O)CN4CCN(C)CC4)cc3)c3ccccc3)c(O)[nH]c2c1` + COc1cc2nc(C)nc(NC(C)c3cc(N)cc(C(F)(F)F)c3)c2cc1OC1CCOC1 was tested, and the IC50 (second compound 0.1 µM) was 2160 nM, the IC50 (second compound 0.316 µM) was 490 nM and the IC50 (second compound 1 µM) was 648 nM. For the same molecule, the IC50 (second compound 3.16 µM) was 585 nM, the IC50 (second compound 10 µM) was 280 nM and the viability, T/C [5] was 94.6%. For the same molecule, the viability, T/C [26] was 77.2%, the viability, T/C [31] was 72.2% and the viability, T/C [32] was 83.7%. The viability, T/C [33] was 33.9%, the viability, T/C [34] was 34.5% and the viability, T/C [10] was 73%. For the same molecule, the viability, T/C [27] was 65.1%, the viability, T/C [35] was 57% and the viability, T/C [36] was 40.4%. The viability, T/C [37] was 29%, the viability, T/C [38] was 24.8% and the viability, T/C [15] was 62%. The viability, T/C [28] was 59%, the viability, T/C [39] was 64.3% and the viability, T/C [40] was 42.9%. It also gave a viability, T/C [41] of 25.5%, a viability, T/C [42] of 20.4% and a viability, T/C [20] of 69.5%. It also gave a viability, T/C [29] of 69.6%, a viability, T/C [43] of 60.9% and a viability, T/C [44] of 39.3%. For the same molecule, the viability, T/C [45] was 19.9%, the viability, T/C [46] was 0.17% and the viability, T/C [25] was 54.2%. The viability, T/C [30] was 58.9%, the viability, T/C [47] was 47.1% and the viability, T/C [48] was 27.2%. It also gave a viability, T/C [49] of 2.2% and a viability, T/C [50] of 0.22%.
`O=C(c1cc(Cc2n[nH]c(=O)c3ccccc23)ccc1F)N1CCN(C(=O)C2CC2)CC1` + COc1cc2nc(C)nc(NC(C)c3cc(N)cc(C(F)(F)F)c3)c2cc1OC1CCOC1 was tested, and the IC50 (second compound 0.1 µM) was 2220 nM, the IC50 (second compound 0.316 µM) was 1750 nM and the IC50 (second compound 1 µM) was 2470 nM. It also gave an IC50 (second compound 3.16 µM) of 1740 nM, an IC50 (second compound 10 µM) of 719 nM and a viability, T/C [5] of 84.2%. It also gave a viability, T/C [26] of 107%, a viability, T/C [31] of 89.7% and a viability, T/C [32] of 78.7%. It also gave a viability, T/C [33] of 37.3%, a viability, T/C [34] of 20.7% and a viability, T/C [10] of 77.2%. It also gave a viability, T/C [27] of 79.2%, a viability, T/C [35] of 81.9% and a viability, T/C [36] of 68.5%. The viability, T/C [37] was 30.3%, the viability, T/C [38] was 15.9% and the viability, T/C [15] was 109%. For the same molecule, the viability, T/C [28] was 104%, the viability, T/C [39] was 102% and the viability, T/C [40] was 94.6%. For the same molecule, the viability, T/C [41] was 37.8%, the viability, T/C [42] was 18.7% and the viability, T/C [20] was 78.4%. For the same molecule, the viability, T/C [29] was 77.3%, the viability, T/C [43] was 76.1% and the viability, T/C [44] was 66.3%. The viability, T/C [45] was 32.5%, the viability, T/C [46] was 18.5% and the viability, T/C [25] was 99.8%. For the same molecule, the viability, T/C [30] was 61%, the viability, T/C [47] was 63% and the viability, T/C [48] was 56.9%. The viability, T/C [49] was 25.3% and the viability, T/C [50] was 14.7%.
